Laboratory results taken from PubChem BioAssay (NCI).
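Cells were grown in 96-well plates and exposed to each compound for 48 hours at five concentrations; endpoints were interpolated linearly between bracketing concentrations, or set to the highest concentration if not reached. The concentration for 50% growth inhibition is given as GI50. TGI is the concentration that stops growth completely.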

Key:
Assay in all cases: inhibition of tumour cell growth, NCI panel, 48 h
[1] = test system: 786-0 renal
[2] = test system: BT-549 breast
[3] = test system: IGROV1 ovarian
[4] = test system: MCF7 breast
[5] = test system: MDA-MB-435
[6] = test system: NCI-H226 lung
[7] = test system: NCI/ADR-RES ovarian
[8] = test system: OVCAR-8 ovarian
[9] = test system: SNB-19 CNS
[10] = test system: U251 CNS

Row | Structure (SMILES) | GI50 [1] [µM] | TGI [1] [µM] | GI50 [2] [µM] | TGI [2] [µM] | GI50 [3] [µM] | TGI [3] [µM] | GI50 [4] [µM] | TGI [4] [µM] | GI50 [5] [µM] | TGI [5] [µM] | TGI [6] [µM] | GI50 [7] [µM] | TGI [7] [µM] | GI50 [8] [µM] | TGI [8] [µM] | TGI [9] [µM] | TGI [10] [µM] | GI50 [6] [µM] | GI50 [9] [µM] | GI50 [10] [µM]
1 | Cc1cc(O)c2c(c1)C(=O)c1cc(O)cc(O)c1C2=O | 25.5 | 84.6 | 25.4 | 86 | 65.2 | > 100 | 27.7 | > 100 | 18.1 | 62.5 | > 70.9 | 36.8 | > 100 | 34.3 | > 100 | > 100 | > 96.3 | – | – | –
2 | O=C(Oc1ccc([N+](=O)[O-])cc1)N1CCN(Cc2cccc(Oc3ccccc3)c2)CC1 | > 100 | > 100 | 52 | > 100 | > 100 | > 100 | 37.1 | > 100 | > 100 | > 100 | > 100 | > 100 | > 100 | > 100 | > 100 | > 100 | > 100 | > 100 | > 100 | > 100
3 | COc1ccc(-c2cnc(-c3ccc(F)cc3)[nH]2)cc1 | 6.14 | 12.3 | 1.79 | 4.12 | 6.58 | 12.7 | 1.95 | 6.93 | 1.96 | 5.27 | > 62.3 | 28.6 | > 100 | 7.85 | 21.1 | 26.1 | 17.2 | 11 | 10.8 | 6.3
4 | COc1ccc(C2NCCc3c2[nH]c2ccccc32)cc1CN1CCN(c2ccc(F)cc2)CC1 (configuration not stated) | 1.71 | 3.17 | 7.55 | 20 | 2.5 | 6.29 | 1.66 | 3.27 | 1.66 | 3.06 | 35.1 | 2.27 | 5.89 | 1.89 | 3.95 | 13 | 2.93 | 13 | 3.54 | 1.56
